Literature values in patent US20080306035A1, “Methods and Compositions for Treating Female Infertility Using Clomiphene” (priority 2005, published 2008).
Structures can show the parent of a compound that is named as a salt.

What was measured:
[1] = in vivo

Molecule | patients treated who achieve pregnancy (patients treated with clomiphene citrate, London et al. 1999) | ovulation, share of patients (up to 100 mg clomiphene citrate for 5 days per cycle) | effect on uterine blood flow [1]
CCN(CC)CCOc1ccc(C(=C(Cl)c2ccccc2)c2ccccc2)cc1 [clomiphene citrate] | 25-40% | about 70% | 
cis-clomiphene |  |  | raise uterine blood flow
trans-clomiphene |  |  | raise uterine blood flow
